Laboratory results from patent US9487482B2, “3,4,5-trimethoxystyrylarylaminopropenones as potential anticancer agents” (Council of Scientific and Industrial Research, priority 2014, dated 2016).

Key:
[1] = system: A549 cells; experiment: In vitro cytotoxicity, MTT assay, A549; format: cell-based, human; conditions: A549 (non-small cell lung cancer), 48 h continuous drug exposure
Protocol: (§1) All cell lines used in this study were purchased from the American Type Culture Collection (ATCC, United States). A549, MCF-7, and HeLa were grown in Dulbecco's modified Eagle's medium (containing 10% FBS in a humidified atmosphere of 5% CO2 at 37° C.). HCT116 cells were cultured in Eagle's minimal essential medium (MEM) containing non-essential amino acids, 1 mM sodium pyruvate, […] bovine insulin, and 10% FBS. Cells were trypsinized when sub-confluent from T25 flasks/60 mm dishes and seeded in 96-well plates. The synthesized test compounds were evaluated for their in vitro antiproliferative in four different human cancer cell lines. A protocol of 48 h continuous drug exposure was used, and a MTT cell proliferation assay was used to estimate cell viability or growth. The cell lines were grown in their respective media containing 10% fetal bovine serum and were seeded into 96-well microtiter plates in 200 μL, aliquots at plating densities depending on the doubling time of individual cell lines. The microtiter plates were incubated at 37° C., 5% CO2, 95% air, and 100% relative humidity for 24 h prior to addition of experimental drugs. Aliquots of 2 μL, of the test compounds were added to the wells already containing 198 μL, of cells, resulting in the required final drug concentrations. For each compound, four concentrations (1, 10, 100, and 1000 μM) were evaluated, and each was done in triplicate wells. Plates were incubated further for 48 h, and the assay was terminated by the addition of 10 μL, of 5% MTT and incubated for 60 min at 37° C. Later, the plates were air-dried. Bound stain was subsequently eluted with 100 μL, of DMSO, and the absorbance was read on an multimode plate reader (Tecan M200) at a wavelength of 560 nm. Percent growth was calculated on a plate by plate basis for test wells relative to control wells. The above determinations were repeated thrice. The growth inhibitory effects of the compounds were analyzed by generating dose response curves as a plot of the percentage surviving cells versus compound concentration. The sensitivity of the cancer cells to the test compound was expressed in terms of IC50, a value defined as the concentration of compound that produced 50% reduction as compared to the control absorbance. (A. S. Kumar, M. A. Reddy, N. Jain, C. Kishor, T. R. Murthy, D. Ramesh, B. Supriya, A. Addlagatta, S. V. Kalivendi, B. Sreedhar. Eur. J. Med. Chem. 60 (2013) 305-24).

[2] = system: HeLa cells; experiment: In vitro cytotoxicity, MTT assay, HeLa; format: cell-based, human; conditions: HeLa (cervical carcinoma), 48 h continuous drug exposure
Protocol: as §1

[3] = system: MCF-7 cells; experiment: In vitro cytotoxicity, MTT assay, MCF-7; format: cell-based, human; conditions: MCF-7 (breast cancer), 48 h continuous drug exposure
Protocol: as §1

[4] = system: HCT116 cells; experiment: In vitro cytotoxicity, MTT assay, HCT116; format: cell-based, human; conditions: 48 h continuous drug exposure
Protocol: as §1

[5] = system: A549, HeLa, MCF-7 and HCT116 cells; experiment: In vitro cytotoxicity, MTT assay, summary over all four cancer cell lines; format: cell-based; conditions: Homo sapiens, range over the group of compounds and the four cell lines, read-out: IC50 value range towards all the cancer cell lines
Protocol: as §1

[6] = Homo sapiens, HCT-116, HCT116 (colon carcinoma)

Row | SMILES | IC50 ([1]; Homo sapiens) [µM] | IC50 ([2]; Homo sapiens) [µM] | IC50 ([3]; Homo sapiens, MCF7, 48 h) [µM] | IC50 [4, 6] [µM] | IC50 [5] [nM] | IC50 [1] [µM] | IC50 [2] [µM] | IC50 [3] [µM] | IC50 ([4]; HCT116 (colon carcinoma)) [µM]
1 | COc1ccc(/C=C\c2cc(OC)c(OC)c(OC)c2)cc1N/C=C\C(=O)c1ccc(OC)c([N+](=O)[O-])c1 [Compound 10t, (Z)-1-(4-methoxy-3-nitrophenyl)-3-((2-methoxy-5-((Z)-3,4,5-trimethoxystyryl)phenyl)amino)prop-2-en-1-one] | 0.77 | 0.21 | 2 | 1.29 | 110 to 4680 | – | – | – | –
2 | COc1ccc(C(=O)/C=C\Nc2c(/C=C\c3cc(OC)c(OC)c(OC)c3)ccc(OC)c2O)cc1N [Compound 16u] | 1.32 | 2.51 | 0.18 | 1.74 | 180 to 7330 | – | – | – | –
3 | COc1ccc(C(=O)/C=C\Nc2cc(/C=C\c3cc(OC)c(OC)c(OC)c3)cc(OC)c2OC)cc1[N+](=O)[O-] [Compound 11t, (Z)-3-((2,3-dimethoxy-5-((Z)-3,4,5-trimethoxystyryl)phenyl)amino)-1-(4-methoxy-3-nitrophenyl)prop-2-en-1-one] | 0.15 | 1.2 | 1.55 | 4.79 | 120 to 5750 | – | – | – | –
4 | COc1ccc(/C=C\c2cc(OC)c(OC)c(OC)c2)cc1OP(=O)(O)O [Ca-4, Combretastatin, reference compound] | – | – | – | – | – | 0.31 | 0.58 | 0.58 | 3.98
5 | COc1ccc(/C=C\c2cc(OC)c(OC)c(OC)c2)c(N/C=C\C(=O)c2ccc(OC(F)(F)F)cc2)c1O [Compound 16o, (Z)-3-((2-hydroxy-3-methoxy-6-((Z)-3,4,5-trimethoxystyryl)phenyl)amino)-1-(4-(trifluoromethoxy)phenyl)prop-2-en-1-one] | 1.32 | 7.08 | 2.24 | 1.95 | 180 to 7330 | – | – | – | –
6 | COc1ccc(/C=C\c2cc(OC)c(OC)c(OC)c2)cc1N/C=C\C(=O)c1cc(OC)c(OC)c(OC)c1 [Compound 10x, (Z)-3-((2-methoxy-5-((Z)-3,4,5-trimethoxystyryl)phenyl)amino)-1-(3,4,5-trimethoxyphenyl)prop-2-en-1-one] | 1.68 | 0.26 | 0.27 | 1.51 | 110 to 4680 | – | – | – | –
7 | COc1ccc(/C=C\c2cc(OC)c(OC)c(OC)c2)cc1N/C=C\C(=O)c1cc(OC)c(OC)c(OC)c1Br [Compound 10y, (Z)-1-(2-bromo-3,4,5-trimethoxyphenyl)-3-((2-methoxy-5-((Z)-3,4,5-trimethoxystyryl)phenyl)amino)prop-2-en-1-one] | 3.51 | 0.25 | 2.95 | 3.98 | 110 to 4680 | – | – | – | –
8 | COc1cc(/C=C\c2cc(OC)c(OC)c(OC)c2)cc(N/C=C\C(=O)c2cc(OC)c(OC)c(OC)c2Br)c1OC [Compound 11y, (Z)-1-(2-bromo-3,4,5-trimethoxyphenyl)-3-((2,3-dimethoxy-5-((Z)-3,4,5-trimethoxystyryl)phenyl)amino)prop-2-en-1-one] | 0.28 | 1.58 | 5.37 | 0.3 | 120 to 5750 | – | – | – | –
9 | COc1cc(/C=C\c2cc(OC)c(OC)c(OC)c2)cc(N/C=C\C(=O)c2ccc(OC(F)(F)F)cc2)c1OC [Compound 11o, (Z)-3-((2,3-dimethoxy-5-((Z)-3,4,5-trimethoxystyryl)phenyl)amino)-1-(4-(trifluoromethoxy)phenyl)prop-2-en-1-one] | 0.21 | 1.86 | 5.7 | 7.08 | 120 to 5750 | – | – | 5.75 | –
10 | COc1ccc(C(=O)/C=C\Nc2cc(/C=C\c3cc(OC)c(OC)c(OC)c3)cc(OC)c2OC)cc1N [Compound 11u, (Z)-1-(3-amino-4-methoxyphenyl)-3-((2,3-dimethoxy-5-((Z)-3,4,5-trimethoxystyryl)phenyl)amino)prop-2-en-1-one] | 0.12 | 4.27 | 5.25 | 7.59 | 120 to 5750 | – | – | – | –
